Results as given in ChEMBL document CHEMBL1201862, “PubChem BioAssay data set” (2004).
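Step 1: Grow cells in 96-well plates. Step 2: Expose to compound for 48 hours at 5 concentrations. Step 3: Interpolate endpoints linearly; if unreached, use highest concentration. GI50: concentration for 50% inhibition of growth.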 Calls of active or inactive are those of the source. Cut-off read from the data, not from the text of the source: active = GI50 up to about 1.1 µM and inactive = higher.

Experiments:
Experiment in all cases: inhibition of tumour cell growth, NCI panel, 48 h
CAKI-1 = system: CAKI-1
CCRF-CEM = system: CCRF-CEM
COLO 205 = system: COLO 205
HT-29 = system: HT-29
IGROV-1 = system: IGROV-1
K562 = system: K562
KM12 = system: KM12
LOX IMVI = system: LOX IMVI
MDA-MB-231 = system: MDA-MB-231
NCI-H522 = system: NCI-H522
OVCAR-5 = system: OVCAR-5
SF-295 = system: SF-295
SK-MEL-28 = system: SK-MEL-28
SN12C = system: SN12C
SR = system: SR
T47D = system: T47D
TK-10 = system: TK-10
UACC-257 = system: UACC-257
SK-MEL-2 = system: SK-MEL-2

| SMILES | GI50 (CAKI-1) | GI50 (CCRF-CEM) | GI50 (COLO 205) | GI50 (HT-29) | GI50 (IGROV-1) | GI50 (K562) | GI50 (KM12) | GI50 (LOX IMVI) | GI50 (MDA-MB-231) | GI50 (NCI-H522) | GI50 (OVCAR-5) | GI50 (SF-295) | GI50 (SK-MEL-28) | GI50 (SN12C) | GI50 (SR) | GI50 (T47D) | GI50 (TK-10) | GI50 (UACC-257) | GI50 (SK-MEL-2) |
| --- | --- | --- | --- | --- | --- | --- | --- | --- | --- | --- | --- | --- | --- | --- | --- | --- | --- | --- | --- |
| Oc1c(Cl)ccc2cccnc12 | 3.25 µM (inactive) | 0.347 µM (active) | 4.25 µM (inactive) | 18.4 µM (inactive) | 0.223 µM (active) | 1.32 µM (inactive) | 4.88 µM (inactive) | 1.94 µM (inactive) | 3.76 µM (inactive) | 1.63 µM (inactive) | 5.87 µM (inactive) | 2.79 µM (inactive) | 22.8 µM (inactive) | 4.58 µM (inactive) | 1.88 µM (inactive) | 1.2 µM (inactive) | 4.36 µM (inactive) | 6.03 µM (inactive) | – |
| O=S(=O)(Cc1cnc(O)nc1O)Cc1cnc(O)nc1O | > 100 µM (inactive) | – | > 100 µM (inactive) | > 100 µM (inactive) | > 100 µM (inactive) | > 100 µM (inactive) | > 100 µM (inactive) | > 100 µM (inactive) | > 100 µM (inactive) | > 100 µM (inactive) | > 100 µM (inactive) | > 100 µM (inactive) | > 100 µM (inactive) | > 100 µM (inactive) | 37.8 µM (inactive) | > 100 µM (inactive) | > 100 µM (inactive) | > 100 µM (inactive) | > 100 µM (inactive) |
| COc1cc(/C=N/N=C2NCCCN2)ccc1O | – | > 100 µM (inactive) | > 100 µM (inactive) | > 100 µM (inactive) | > 100 µM (inactive) | > 100 µM (inactive) | > 100 µM (inactive) | > 100 µM (inactive) | > 100 µM (inactive) | > 100 µM (inactive) | > 100 µM (inactive) | > 100 µM (inactive) | > 100 µM (inactive) | > 100 µM (inactive) | > 100 µM (inactive) | > 100 µM (inactive) | > 100 µM (inactive) | > 100 µM (inactive) | > 100 µM (inactive) |
| O=C1/C(=C/c2ccc(OC(=O)c3ccccc3)cc2)CCC/C1=C\c1ccc(OC(=O)c2ccccc2)cc1 | > 100 µM (inactive) | > 100 µM (inactive) | > 100 µM (inactive) | > 100 µM (inactive) | > 100 µM (inactive) | – | > 100 µM (inactive) | > 100 µM (inactive) | > 100 µM (inactive) | > 100 µM (inactive) | > 100 µM (inactive) | > 100 µM (inactive) | > 100 µM (inactive) | > 100 µM (inactive) | > 100 µM (inactive) | > 100 µM (inactive) | > 100 µM (inactive) | > 100 µM (inactive) | > 100 µM (inactive) |
| COC(=O)[C@@H]1CCCN1CCN1CCC[C@H]1C(=O)OC | > 100 µM (inactive) | – | > 100 µM (inactive) | > 100 µM (inactive) | – | > 100 µM (inactive) | > 100 µM (inactive) | – | > 100 µM (inactive) | > 100 µM (inactive) | > 100 µM (inactive) | > 100 µM (inactive) | > 100 µM (inactive) | > 100 µM (inactive) | 31.8 µM (inactive) | > 100 µM (inactive) | > 100 µM (inactive) | – | > 100 µM (inactive) |
| O=C(CC(Cl)(Cl)C(Cl)(Cl)Cl)c1ccccc1 | 2.3 µM (inactive) | – | 3.24 µM (inactive) | 2.06 µM (inactive) | 4.84 µM (inactive) | 2.09 µM (inactive) | 4.18 µM (inactive) | 1.83 µM (inactive) | 2.11 µM (inactive) | 2.65 µM (inactive) | 11.2 µM (inactive) | 1.78 µM (inactive) | 2.2 µM (inactive) | 0.59 µM (active) | 2.04 µM (inactive) | 2.73 µM (inactive) | 6.1 µM (inactive) | 1.78 µM (inactive) | 10.1 µM (inactive) |
| CC(=O)c1c(N=[N+]=[N-])c2cccc3c2n(c1=O)CCC3 | 28.3 µM (inactive) | 19.1 µM (inactive) | 21.4 µM (inactive) | 16.4 µM (inactive) | 20.1 µM (inactive) | 21.8 µM (inactive) | 14.6 µM (inactive) | 15.1 µM (inactive) | 13.9 µM (inactive) | 13.9 µM (inactive) | 15.2 µM (inactive) | 24.7 µM (inactive) | – | 22.1 µM (inactive) | 36.7 µM (inactive) | 22.6 µM (inactive) | 25.4 µM (inactive) | 16.6 µM (inactive) | 21.7 µM (inactive) |
| CCOC(=O)C(=O)/C(=C/n1c(=S)[nH]c2ccc([N+](=O)[O-])cc21)C(=O)OCC | > 100 µM (inactive) | > 100 µM (inactive) | > 100 µM (inactive) | > 100 µM (inactive) | – | > 100 µM (inactive) | > 100 µM (inactive) | > 100 µM (inactive) | > 100 µM (inactive) | – | > 100 µM (inactive) | > 100 µM (inactive) | > 100 µM (inactive) | > 100 µM (inactive) | > 100 µM (inactive) | > 100 µM (inactive) | > 100 µM (inactive) | > 100 µM (inactive) | > 100 µM (inactive) |
| S=C1CC(c2ccccc2)Sc2cc(Cl)ccc2N1 (centres undefined) | 7.71 µM (inactive) | 1.36 µM (inactive) | 5.02 µM (inactive) | 4.4 µM (inactive) | 16 µM (inactive) | 0.64 µM (active) | 3.97 µM (inactive) | 4.09 µM (inactive) | 7.57 µM (inactive) | 2.21 µM (inactive) | > 100 µM (inactive) | 3.45 µM (inactive) | 8.73 µM (inactive) | 8.77 µM (inactive) | 3.44 µM (inactive) | 21.6 µM (inactive) | 16.2 µM (inactive) | 6.04 µM (inactive) | – |
| CCCNC(C#N)c1ccc(OCCCCCCCCCCOc2ccc(C(C#N)NCCC)cc2)cc1 (centres undefined) | – | 15.3 µM (inactive) | > 100 µM (inactive) | 51.1 µM (inactive) | 54.6 µM (inactive) | 23.6 µM (inactive) | 64.7 µM (inactive) | 14.8 µM (inactive) | > 100 µM (inactive) | 72.6 µM (inactive) | 69.8 µM (inactive) | 31.3 µM (inactive) | > 100 µM (inactive) | 68.9 µM (inactive) | 25.6 µM (inactive) | 64 µM (inactive) | 29.2 µM (inactive) | 48.5 µM (inactive) | 38.5 µM (inactive) |
| C[C@@]12C[C@@H](c3ccccc3O1)N1Cc3ccccc3CSC1=N2 | > 100 µM (inactive) | – | 35.2 µM (inactive) | 38.3 µM (inactive) | > 100 µM (inactive) | 64.9 µM (inactive) | > 100 µM (inactive) | 35.5 µM (inactive) | > 100 µM (inactive) | 49.7 µM (inactive) | > 100 µM (inactive) | > 100 µM (inactive) | > 100 µM (inactive) | > 100 µM (inactive) | > 100 µM (inactive) | 72.9 µM (inactive) | 57.7 µM (inactive) | 66.5 µM (inactive) | > 100 µM (inactive) |
| O=C1C(Cl)C(c2cccc(Br)c2)N1c1c(O)c(Cl)cc(Br)c1Cl (centres undefined) | 19.3 µM (inactive) | 14.6 µM (inactive) | 8.63 µM (inactive) | 5.81 µM (inactive) | 1.25 µM (inactive) | 15.9 µM (inactive) | 16.7 µM (inactive) | 14.5 µM (inactive) | 17 µM (inactive) | 14.1 µM (inactive) | 26.7 µM (inactive) | 17.4 µM (inactive) | – | 14.7 µM (inactive) | 20.4 µM (inactive) | 15.2 µM (inactive) | 19 µM (inactive) | 10.8 µM (inactive) | 7.08 µM (inactive) |
| COC(=O)C(C)(Cc1ccc2c(c1)nnn2C(C)=O)NC(C)=O (centres undefined) | > 100 µM (inactive) | > 100 µM (inactive) | > 100 µM (inactive) | > 100 µM (inactive) | > 100 µM (inactive) | > 100 µM (inactive) | > 100 µM (inactive) | > 100 µM (inactive) | > 100 µM (inactive) | > 100 µM (inactive) | > 100 µM (inactive) | > 100 µM (inactive) | > 100 µM (inactive) | – | > 100 µM (inactive) | > 100 µM (inactive) | > 100 µM (inactive) | > 100 µM (inactive) | > 100 µM (inactive) |
| CCOc1cc(NC(C)=O)ccc1C(=O)NN1C(=O)/C(=C/c2ccc(Cl)cc2)N=C1c1ccccc1 | 43.1 µM (inactive) | 25 µM (inactive) | 33.7 µM (inactive) | 52.6 µM (inactive) | 18.1 µM (inactive) | 35.2 µM (inactive) | 34.3 µM (inactive) | 62.7 µM (inactive) | 33.7 µM (inactive) | – | > 100 µM (inactive) | 38.5 µM (inactive) | > 100 µM (inactive) | 70.6 µM (inactive) | 46 µM (inactive) | 13.2 µM (inactive) | 49.1 µM (inactive) | 43.9 µM (inactive) | 28.3 µM (inactive) |
| CCOC(=O)C(Cc1ccc(N(CCCl)CCCl)cc1)NC(=O)C(Cc1ccccc1)NC=O (centres undefined) | 0.0385 µM (active) | 0.0526 µM (active) | 0.197 µM (active) | 0.142 µM (active) | 0.0492 µM (active) | 0.188 µM (active) | 0.48 µM (active) | 0.0713 µM (active) | 0.262 µM (active) | 0.117 µM (active) | 0.337 µM (active) | 0.257 µM (active) | – | 0.156 µM (active) | 0.00811 µM (active) | 0.092 µM (active) | 0.157 µM (active) | 0.24 µM (active) | 0.161 µM (active) |
| CN(C)Cc1cc(C(=O)/C=C/c2ccccc2Cl)cc(CN(C)C)c1O | 3.56 µM (inactive) | 3.4 µM (inactive) | 4.23 µM (inactive) | 3.13 µM (inactive) | 13.6 µM (inactive) | 4.79 µM (inactive) | 7.8 µM (inactive) | 3.33 µM (inactive) | 12.2 µM (inactive) | 3.93 µM (inactive) | 23.1 µM (inactive) | 14.6 µM (inactive) | 14.7 µM (inactive) | 9.16 µM (inactive) | 5.6 µM (inactive) | > 10 µM (inactive) | 19.7 µM (inactive) | 15.4 µM (inactive) | – |
